Assay results as given in US11207277B2, “Methods of treating diseases associated with high-fat diet and vitamin a deficiency using retinoic acid receptor agonists” (Cornell University, priority 2013, dated 2021).
“Also recorded” adds a separate entry of the source.

Legend:
[1] = test system: hepatocyte lipid accumulation; test: Hematoxylin and eosin staining of liver sections (hepatic steatosis); type: in vivo; conditions: HF diet mice 4 months + AC261066 or CD1530; vs HF-vehicle
From the text: (§1) WT male C57/BL6 male mice were maintained on either a standard laboratory chow-fed diet (CFD) with 13% kcal fat, (diet #5053, Lab Diet, Inc, St. Louis, Mo.) or a high fat, western style diet (HFD) with 60% kcals from fat, (diet #58126, Lab Diet, Inc., St. Louis, Mo.) for 4 months. One month after the start of the high fat diet treatment, the high fat diet group was further split into 2 groups for 3 months: i) high fat diet and the drinking water containing 1% DMSO; ii) high fat diet and the drinking water containing 1.5 mg/100 ml AC261066, a specific RARβ agonist. Then mice were sacrificed by cervical dislocation. Blood and various tissue samples were harvested.
At sacrifice, fresh mouse liver samples were fixed in 4% formaldehyde solution for 24 hr and embedded in paraffin blocks. Liver paraffin sections were cut 5 microns thick and mounted on glass slides and stained with hematoxylin and eosin (H and E) using standard protocols.

hepatic lipids = test: Oil red O staining of liver sections; type: in vivo; conditions: HF diet mice + AC261066 or CD1530; vs HF-vehicle
From the text: as §1
Staining. Fresh mouse liver samples were embedded in optimal cutting temperature (OCT) medium and immediately frozen to −70 centigrade. Cryosections were then fixed in 4% formaldehyde for 1 hr at room temp. Slides were then rinsed three times in deionized water (dH2O) for 30 s, followed by treatment with 0.5% Triton X-100 in PBS for 5 min. Sections were then washed three times with PBS for 5 min. Samples were with incubated 2% bovine serum albumin (BSA) for 30 min at room temperature to block for unspecific antibody binding. Following blocking, sections were washed three times in PBS and incubated with mouse monoclonal antibody against α-SMA (1:500) (Dako, Inc) for 24 h at 4° C. […]

α-SMA = α-SMA immunofluorescence of liver sections (hepatic stellate cell activation); type: in vivo; conditions: HF diet mice + AC261066 or CD1530; vs HF-vehicle
From the text: as §1
Staining. Fresh mouse liver samples were embedded in optimal cutting temperature (OCT) medium and immediately frozen to −70 centigrade. Cryosections were then fixed in 4% formaldehyde for 1 hr at room temp. Slides were then rinsed three times in deionized water (dH2O) for 30 s, followed by treatment with 0.5% Triton X-100 in PBS for 5 min. Sections were then washed three times with PBS for 5 min. Samples were with incubated 2% bovine serum albumin (BSA) for 30 min at room temperature to block for unspecific antibody binding. Following blocking, sections were washed three times in PBS and incubated with mouse monoclonal antibody against α-SMA (1:500) (Dako, Inc) for 24 h at 4° C. After 24 h sections were washed three times in PB and incubated with Alexa-Flour-488 anti-mouse secondary anti-body (1:500) (Invitrogen, Inc) for 30 min at room temperature. Sections were then washed three times in PBS and incubated with working strength oil-red O solution for 30 minutes at room temperature. Sections were then rinsed for 30 minutes under running tap water and cover-slipped with Vectashield hard mount plus DAPI (Vector Labs, Inc).

SREBP1-c = test: Semi-quantitative PCR liver, SREBP1-c; type: in vivo; conditions: HF diet mice + AC261066 or CD1530
From the text: as §1
(§2) Total RNA was extracted from mouse tissues using TRIzol reagent (Life technologies) and (1 μg) was used to synthesize cDNA. cDNA synthesis was performed at 42° C. for 1 h in a final volume of 20 μl using qScript (Quanta, MD). Semi-quantitative PCR were performed Taq DNA polymerase (Invitrogen, CA). Three step PCR was run as follows: 94° C. for 30 s, 58-64° C. for 45 s for primer annealing and 72° C. for 1 min for primer extension. The number of cycles for each primer pair for amplification in the linear range was determined experimentally. PCR products were resolved 2% agarose gels and visualized by staining with ehtidium bromide. Primers for gene expression used were as follows: […]

MCP-1 = test: Semi-quantitative PCR liver, MCP-1; type: in vivo; conditions: HF diet mice + AC261066 or CD1530
From the text: as §1, §2

TNF-α = test: Semi-quantitative PCR liver, TNF-α; type: in vivo; conditions: HF diet mice + AC261066 or CD1530
From the text: as §1, §2

[2] = test system: retinyl palmitate and retinol; test: HPLC analysis of liver retinoids; type: in vivo, mice
From the text: as §1
The frozen liver tissue samples (˜100 mg) were homogenized in 500 μl cold phosphate-buffered saline (PBS). In addition, 100 μl serum was diluted in cold PBS to total volume of 500 μl. Retinyl acetate was added to each sample before the retinoid extraction for the calculation of extraction efficiency. The retinoids were extracted into 350 μl of organic solution (acetonitrile/butanol, 50:50, v/v) in the dark. The high performance liquid chromatography (HPLC) was performed using a Waters Millennium system (Waters). Each sample (100 μl of the 350 μl) was loaded onto an analytical 5-μm reverse phase C18 column (Vydac, Hesperia, Calif.) and eluted at a flow rate of 1.5 ml/min. Two mobile phase gradient systems were used. Retinoids were identified by HPLC based on two criteria: an exact match of the retention times of unknown peaks with those of authentic retinoid standards and identical UV light spectra (220-400 nm) of unknowns against spectra from authentic retinoid standards during HPLC by the use of a photodiode array detector. The amounts of retinoids were calculated from the areas under the peaks detected at the wave-length of 325 nm. The levels of retinol and retinyl esters were normalized to the tissue weight.

renal lipid accumulation = test: Hematoxylin and eosin staining of kidney sections; type: in vivo; conditions: HF diet mice + AC261066 or CD1530; vs HF-vehicle
From the text: as §1
At sacrifice, fresh mouse liver samples were fixed in 4% formaldehyde solution for 24 hr and embedded in paraffin blocks. Kidney paraffin sections were cut 5 microns thick and mounted on glass slides and stained with hematoxylin and eosin (H and E) using standard protocols.

RARβ = test: RT-PCR of RARβ in RA-treated ES cells; type: cell-based, mouse; conditions: WT ES cells, presence of RA vs untreated
Procedure: (§3) Mouse J1 wild-type FS cells were cultured as described previously (27). C57BL/6 RARβ heterozygous mice were provided by Dr. Pierre Chambon (Strasbourg-Cedex, France) (26). Homozygous RARβ-null mice were obtained following mating of RARβ heterozygous mice. Blastocysts were harvested on day E3.5 and individually cultured on ES cell medium as previously described (28). Various markers for endodermal (day 5), pancreatic progenitor (day 11), endocrine progenitor (day 14) and endocrine (day 17) differentiation were analyzed by semi-quantitative RT-PCR in J1 wild-type and RARβ KO ESCs. Primers were designed around introns whenever possible. Total RNA extraction, semi-quantitative and quantitative PCR reactions were performed as previously described (18). Amplified PCR products were resolved on 1.5% agarose gels and visualized by staining with ethidium bromide. PCR bands were sequenced for verification of the correct amplicon. Quantitation of semi-quantitative gels was performed using ImageJ software (National Institutes of Health) from three experimental biological repeats.

Cyp26a1 = test: RT-PCR of Cyp26a1 in RA-treated WT and RARβ KO ES cells; type: cell-based, mouse
Procedure: as §3

[3] = HF diet mice + AC261066 or CD1530 vs controls

| SMILES | hepatocyte lipid infiltration / hepatic steatosis (H and E) [1] | hepatic lipid accumulation (oil red O) (hepatic lipids) | α-SMA positive staining in liver (HSC activation) (α-SMA) | mRNA levels of SREBP1-c in liver (SREBP1-c) | mRNA levels of MCP-1 in liver (MCP-1) | mRNA levels of TNF-α in liver (TNF-α) | liver retinol compared to controls [2, 3] | liver retinyl palmitate compared to controls [2, 3] | retinyl palmitate levels in the liver lower than HF-vehicle treated mice ([2]; HF diet mice + CD1530) [%] | renal lipid infiltration/accumulation (H and E) (renal lipid accumulation) | RARβ transcript signal (RARβ) | Cyp26a1 expression (Cyp26a1) |
| --- | --- | --- | --- | --- | --- | --- | --- | --- | --- | --- | --- | --- |
| O=C(O)c1ccc(-c2ccc3cc(O)c(C45CC6CC(CC(C6)C4)C5)cc3c2)cc1 [CD1530] | no decrease in hepatic lipid accumulation | not observed; also recorded: no evidence decreased lipid accumulation | no evidence decreased lipid accumulation or α-SMA expression intensity or patterns | markedly higher | markedly elevated | markedly elevated | significantly lowered | significantly lowered | ~48 | no decrease in renal lipid accumulation | – | – |
| CC1=C(/C=C/C(C)=C/C=C/C(C)=C/C(=O)O)C(C)(C)CCC1 [RA, all trans-retinoic acid] | – | – | – | – | – | – | – | – | – | – | stronger RARβ signal | RA-dependent Cyp26a1 expression was observed in both WT and RARβ KO ES cells |
